Experimental findings from patent US9684253B2, “Triphenylamine derivative, electrophotographic photosensitive member, and image forming apparatus” (KYOCERA Document Solutions Inc., priority 2014, dated 2017) are described below.

This series can be described thus: Evaluation of triphenylamine derivative solubility in tetrahydrofuran. Type of series: physicochemical. Conditions: for solubility in a solvent used for photosensitive layer formation (in words): as shown by Table 1; for Solubility: tetrahydrofuran, 25° C., {100/(100+W)}×100. On the procedure:
Solubility of each of the triphenylamine derivatives (HT-1) to (HT-8), (HT-A), and (HT-B) was evaluated. More specifically, solubility of the obtained triphenylamine derivative was evaluated by calculating percentage solubility according to the following method. In the method, a small amount of tetrahydrofuran was added to 100 mg of the triphenylamine derivative at 25° C. Next, the mixture was shaken and left to stand, and the above steps were repeated in order to find an additive amount W (mg) of tetrahydrofuran for which solubility of the triphenylamine derivative was saturated. The additive amount W was used to calculate the percentage solubility according to equation (1) shown below. […] Solubility (%)={100/(100+W)}×100 Equation (1): […]

As to `Cc1cccc(N(c2ccc(/C=C/C=C/c3ccccc3)cc2)c2ccc(-c3ccc(N(c4ccc(/C=C/C=C/c5ccccc5)cc4)c4cccc(C)c4)cc3)cc2)c1` [HT-B, reference compound], the “solubility in a solvent used for photosensitive layer formation (in words)” value is on record as “poor solubility” and the Solubility was 7%.

As for `CCc1cccc(C)c1N(c1ccc(/C=C/C=C/c2ccc(C)cc2)cc1)c1ccc(-c2ccc(N(c3ccc(/C=C/C=C/c4ccc(C)cc4)cc3)c3c(C)cccc3CC)cc2)cc1` [HT-2], the Solubility came out at 12%.

Molecule `CCc1cccc(C)c1N(c1ccc(/C=C/C=C/c2cccc(OC)c2)cc1)c1ccc(-c2ccc(N(c3ccc(/C=C/C=C/c4cccc(OC)c4)cc3)c3c(CC)cccc3OC)cc2)cc1` [HT-5] had a Solubility of 18%. On the same count and under the same terms, next, `Cc1ccc(N(c2ccc(/C=C/C=C/c3ccccc3)cc2)c2ccc(-c3ccc(N(c4ccc(/C=C/C=C/c5ccccc5)cc4)c4ccc(C)cc4C)cc3)cc2)c(C)c1` [HT-7]: 14%; `CCc1cccc(C)c1N(c1ccc(/C=C/C=C/c2ccccc2)cc1)c1ccc(-c2ccc(N(c3ccc(/C=C/C=C/c4ccccc4)cc3)c3c(C)cccc3CC)cc2)cc1` [HT-1]: 12%; `C(/C=C/c1ccc(N(c2ccc(-c3ccc(N(c4ccc(/C=C/C=C/c5ccccc5)cc4)c4ccccc4-c4ccccc4)cc3)cc2)c2ccccc2-c2ccccc2)cc1)=C\c1ccccc1` [HT-8]: 12%. Turning to `C(/C=C/c1ccc(N(c2ccccc2)c2ccc(-c3ccc(N(c4ccccc4)c4ccc(/C=C/C=C/c5ccccc5)cc4)cc3)cc2)cc1)=C\c1ccccc1` [HT-A, reference compound], the “solubility in a solvent used for photosensitive layer formation (in words)” value is reported as “poor solubility” and the Solubility result is recorded as “≦1%”. Molecule `Cc1ccccc1N(c1ccc(/C=C/C=C/c2ccccc2)cc1)c1ccc(-c2ccc(N(c3ccc(/C=C/C=C/c4ccccc4)cc3)c3ccccc3C)cc2)cc1` [HT-3] showed a Solubility of 14%.

Regarding `CCc1cccc(OC)c1N(c1ccc(/C=C/C=C/c2ccc(C)cc2)cc1)c1ccc(-c2ccc(N(c3ccc(/C=C/C=C/c4ccc(C)cc4)cc3)c3c(CC)cccc3OC)cc2)cc1` [HT-4], the Solubility is given as 20%.
